Results from patent publication US4880826A, “Melatonin antagonist” (priority 1986, dated 1989).

Columns and labels:
prepubertal male rats = experiment: Long-term administration to prepubertal male rats: accessory sex organ development and testosterone; format: in vivo, rat
Description: (1) Long-term administration of melatonin (via the drinking water or via intraperitoneal injection) to prepubertal male rats results in retardation of testicular accessory sex organ development.
(4) Long-term administration of ML-23 alone to prepubertal male rats, enhanced testosterone levels in the blood of the animals.

adult female rats = experiment: Melatonin block of luteinizing hormone secretion and ovulation in adult female rats at proestrus; format: in vivo, rat
Description: (2) Melatonin administration to adult female rats in the afternoon of proestrus blocks the phasic secretion of luteinizing hormone and ovulation.

[1] = tested on: Female rats kept under constant illumination; experiment: Ovarian cyclicity of female rats kept under constant illumination; format: in vivo, rat
rat hypothalamus = conditions: cited from earlier work
Melatonin receptor = Melatonin receptor assay using 2-125I-iodo-ML-23; format: binding, rat; conditions: female rats: hypothalamus, medulla-pons, hippocampus, cerebellum, striatum, parietal cortex
Method: Tissue sections or isolated cells were suspended in 10 ml/g ice-cold 0.32M sucrose, homogenized in a teflon-glass homogenizer. The homogenate was centrifuged (10000 g-min) the pellet was discarded and the supernatant centrifuged (68000 g-min). The crude membrane pellet was suspended in 2 vol of 50 mM Tris-HCL buffer, pH 7.4 containing 4 mM CaCl2. 2-^125 I-iodo-ML-23 was prepared by iodination of ML-23 with Na^125 I (Amersham) (20 CI/mmol) in the presence of Iodo-Gen. The principal iodination product, 2-^125 I-iodo-ML 23 (^125 I-MLI-23) was separated from unsubstituted ML-23 as described in Example 2. Aliquots of the membrane preparations (200 μg protein/20 μl) were incubated with 40 μl Trisbuffer containing 20-100 nM ^125 I-MLI-23 for 30 min. at 37° C. on a shaking water bath, in the absence or presence of unlabelled melatonin (50 μM). Membranes were then collected by vacuum filtration using GF/C glass fiber filters and washed with 3×4 ml buffer at 4° C. The filters containing bound ^125 I-ML-23 were assayed for radioactivity using a Packard gamma counter. Specific binding was defined as that displaced by 50 μM of non-radioactive melatonin and ranged from 50 to 60% of the total binding at 50 nM ^125 I-MLI-23. […]

[2] = oral administration in the presence of melatonin

For `COc1ccc2[nH]cc(CCNC(C)=O)c2c1` [melatonin, 5-methoxy-N-acetyl-tryptamine], the “testicular accessory sex organ development” value (prepubertal male rats; long-term administration via the drinking water or intraperitoneal injection) was “retardation”, the “phasic secretion of luteinizing hormone and ovulation” value (adult female rats; administration in the afternoon of proestrus, adult female rats) was “blocks” and the ovarian cyclicity ([1]; daily melatonin injections, female rats under constant illumination) was “reestablish ovarian cyclicity”. For the same molecule, the “stimulated release of dopamine” value (rat hypothalamus) was “inhibits”.
For `COc1ccc2[nH]c([125I])c(CCNc3ccc([N+](=O)[O-])cc3[N+](=O)[O-])c2c1` [^125 I-MLI-23], the “specific binding in brain regions” value (Melatonin receptor) was “found”.
In the case of `COc1ccc2[nH]cc(CCNc3ccc([N+](=O)[O-])cc3[N+](=O)[O-])c2c1` [ML-23, N-2,4-dinitrophenyl-5-methoxy-tryptamine], the “testosterone levels in the blood” value (prepubertal male rats; long-term administration alone) is reported as “enhanced”, the “effect on melatonin's suppressive effects on prostate and seminal vesicle growth” value (prepubertal male rats; [2]) is reported as “entirely abolished” and the “effect on melatonin's suppressive effects on serum testosterone levels” value (prepubertal male rats; [2]) is reported as “entirely abolished”. The “effect on melatonin block of luteinizing hormone secretion and ovulation” value (adult female rats; via the drinking water, female rats given melatonin) was “prevented the effect of melatonin and normal ovulation occurred” and the “ovarian cyclicity re-established by daily melatonin injections” value ([1]; rats treated orally with the antagonist, constant illumination) was “not in rats treated orally with ML-23”.
